Assay results taken from PubChem BioAssay AID2740 (NMMLSC, 2010).
Several values for one entry are separate records, joined by “and”; a condition that tells them apart may be missing. Identical values can stand only once. Activity calls are given as the source filed them.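 The calls were made as follows: active = compounds whose fitted half-maximal concentration for changing the GFP signal is at or below a set limit; inactive = the rest.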

Experiment: TOR pathway RPL19A-GFP modulators, concentration series – cell-based, S. cerevisiae, flow cytometry, MLPCN hits, dose response (AID 2740);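 also: background is signal of the same compound in parental non-GFP s288c yeast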
Conditions: S. cerevisiae RPL19A-GFP strain, flow cytometry fluorescence, 3 h; at 33 µM (top of the series)

Row | Compound | GFP fluorescence, lower = active (kMESF (background-subtracted))
1 | C=CCN1C(=O)/C(=C/c2ccc(-c3ccc(F)cc3)o2)SC1=S | 34.7 (inactive)
2 | COc1ccc2c(/C=C/c3cc[n+](C)cc3)c[nH]c2c1 | 39 (inactive)
3 | COc1ccccc1C(=O)NNC(=S)NC(=O)c1cccs1 | 43.5 (inactive)
4 | Cc1cc(C)c(C)c(S(=O)(=O)ON2C(=O)c3ccccc3C2=O)c1C | 49.1 (inactive)
5 | CCN(CC)c1ccc(/C=C2\C(=O)c3ccc(C(=O)O)cc3C2=O)cc1 | 51.5 (inactive)
6 | COc1ccc(N=Cc2nc(-c3ccccc3)oc2OC(=O)c2ccccc2)cc1 | 46.2 (inactive)
7 | O=C(Nc1ccc(NC(=O)c2cc3ccccc3o2)cc1)c1ccc2c(c1)OCCO2 | 40.1 (inactive)
8 | CCN(CC)C(=O)Oc1ccnc2cc(Cl)ccc12 | 41.8 (inactive)
9 | c1ccc(-c2cccc(-c3ccccn3)n2)nc1 | 36.2 (inactive)
10 | O=C(/C=C/c1ccccc1[N+](=O)[O-])c1ccccc1Br | 44.1 (inactive)
11 | Cc1cc(C)nc(S/C=C/C(=O)c2ccccc2)n1 | 47.4 (inactive)
12 | O=C(Oc1c(Cl)cc(Cl)c2cccnc12)c1ccco1 | 34.9 (inactive)
13 | COc1cccc(C(=O)Nc2nnc(-c3ccc(Cl)cc3)o2)c1 | 35.5 (inactive)
14 | CCN(CC(=O)NC(C)(C)C)C(=O)COc1c(Cl)cc(Cl)c2ccc(C)nc12 | 50.3 (inactive)
15 | Cc1cccc(/C=C/C(=O)c2ccc([N+](=O)[O-])o2)c1 | 16.1 (inactive)
16 | O=C(O)c1ccc2c(c1)C(=O)/C(=C/c1ccccc1)C2=O | 36.8 (inactive)
17 | COc1cccc(/C=N/Nc2ncc(C(F)(F)F)cc2Cl)c1O | 38.7 (inactive)
18 | COc1ccc(N2CCN(C(=O)c3ccccc3)CC2)c([N+](=O)[O-])c1 | 47.4 (inactive)
19 | O=c1c2cc(Cl)ccc2nc(-c2ccc([N+](=O)[O-])cc2)n1O | 14 (inactive)
20 | Oc1c(C(Nc2cccc(C(F)(F)F)c2)c2ccncc2)ccc2cccnc12 (configuration not stated) | 45.3 (inactive)
21 | Oc1c(Br)cc(Br)cc1C=Nc1ccc2[nH]ncc2c1 | 36 (inactive)

Row | Compound | GFP fluorescence, lower = active (kMESF (background-subtracted))
22 | Cc1ccccc1OCCOC(=O)c1ccc(S(=O)(=O)N2CCCC2)cc1 | 43.3 (inactive)
23 | CC(C)(C)C1C/C(=C/c2ccccn2)C(=O)/C(=C/c2ccccn2)C1 (configuration not stated) | 41.4 (inactive)
24 | COc1ccc(NC2=C(Cl)C(=O)N(CCc3ccccc3)C2=O)c(OC)c1 | 39.1 (inactive)
25 | Cc1ccc(C(=O)Oc2oc(-c3ccco3)nc2C=Nc2ccc(Cl)cc2)cc1 | 40.8 (inactive)
26 | COc1ccc([N+](=O)[O-])c(S(=O)(=O)c2ccccc2)n1 | 39.1 (inactive)
27 | Oc1c(CN2CCN(c3ccccc3)CC2)cc(Br)c2cccnc12 | 38.4 (inactive)
28 | CC(C)[C@]1(c2ccc(Cl)cc2)ON(c2ccccc2C(F)(F)F)C1=O | 40.6 (inactive)
29 | O=C(Nc1ccc(O)cc1)C1CCCN1S(=O)(=O)c1ccc(F)cc1 (configuration not stated) | 45 (inactive)
30 | COc1ccc(NC2=C(Cl)C(=O)N(CCc3ccccc3)C2=O)cc1 | 41.6 (inactive)
31 | Cc1cc(/C=C2/SC(=S)N(c3cccc(Cl)c3)C2=O)c(C)n1-c1cccnc1 | 42.7 (inactive)
32 | COc1ccc(/C=C/C(=O)C2C(=O)C=C(C)OC2=O)cc1O (configuration not stated) | 39 (inactive)
33 | COC(=O)/C(=C/c1c[nH]c2ccccc12)[N+](=O)[O-] | 42.8 (inactive)
34 | COc1cc(/C=C2\C(=O)ON=C2c2ccc(Cl)cc2)ccc1O | 40.8 (inactive)
35 | CC(=O)c1ccc(N2CCN(C(=O)c3ccc(Br)cc3)CC2)c(F)c1 | 46.1 (inactive)
36 | O=C(NC(=S)NNC(=O)[C@H]1C[C@@H]1c1ccccc1)c1cccc(F)c1 | 45.1 (inactive)
37 | CCCOc1ccc(C(=O)NNC(=S)NC(=O)CC)cc1 | 50.5 (inactive)
38 | Cc1ccc(/C(N)=N/OC(=O)c2ccc(F)cc2)cc1 | 43.7 (inactive)
39 | COc1cc(N=c2ssnc2Cl)cc(OC)c1 | 31.6 (inactive)
40 | Clc1cnc(N/N=C/c2cccs2)c(Cl)c1 | 43.5 (inactive)
41 | N#Cc1nccnc1S(=O)(=O)c1cccs1 | 35.5 (inactive)
42 | COc1ccc(/C=C2/C(=O)ON=C2c2ccccc2)cc1OC | 39.5 (inactive)

Row | Compound | GFP fluorescence, lower = active (kMESF (background-subtracted))
43 | Cc1c(Br)c(=O)oc2c(Br)c(O)c(O)cc12 | 38.1 (inactive)
44 | CC1(C(=O)NC(=S)NNC(=O)c2ccncc2)CCCCC1 | 39.9 (inactive)
45 | CC(c1ccccc1)N1C(=O)/C(=C/c2ccncc2)SC1=S (configuration not stated) | 20.6 (inactive)
46 | CC1=NOC(=O)/C1=C\c1ccc(-c2cc(Cl)ccc2Cl)o1 | 39 (inactive)
47 | Cc1ccc2[nH]c(C)c(/C=C/c3cc[n+](C)cc3)c2c1 | 37.4 (inactive)
48 | COc1cc(/C=C2\C(=O)ON=C2c2ccccc2)cc(OC)c1OC | 33.4 (inactive)
49 | Cc1cc(C)c(S(=O)(=O)N2CCC(C(=O)NCc3ccc(Cl)cc3Cl)CC2)c(C)c1 | 31.7 (inactive)
50 | N/C(Cc1ccc(Cl)cc1Cl)=N\OC(=O)c1ccccc1 | 28.6 (inactive)
51 | O=C(Oc1oc(-c2ccco2)nc1C=Nc1ccc(Cl)cc1)c1ccco1 | 52.3 (inactive)
52 | O=C1CCN(S(=O)(=O)c2ccccc2)CCN1CCOCc1ccc(F)cc1 | 36.9 (inactive)
53 | O=C(/C=C/c1ccc(Cl)c([N+](=O)[O-])c1)c1cccnc1 | 36.9 (inactive)
54 | CC(C)(C)C(=O)NC(=S)NNC(=O)c1ccc(-c2ccccc2)cc1 | 40.7 (inactive)
55 | COc1ccc(N=Cc2nc(-c3ccccc3)oc2OC(C)=O)cc1 | 40.2 (inactive)
56 | O=C(C#Cc1cccc([N+](=O)[O-])c1)c1ccccc1 | 41.3 (inactive)
57 | O=C(O)c1cc[c]([Hg][Cl])cc1 | 15.7 (inactive)
58 | Cc1ccc(/C=c2\sc3nc(-c4cccs4)nn3c2=O)o1 | 44.7 (inactive)
59 | O=C1C(Cl)=C(NCCc2ccccc2)C(=O)N1CCc1ccccc1 | 43.1 (inactive)
60 | O=C(COc1c(Br)cc(Br)c2cccnc12)N1CCc2ccccc2C1 | 45.4 (inactive)
61 | Cc1ccc(N2C(=O)CC(Sc3ncn[nH]3)C2=O)cc1C (configuration not stated) | 49.3 (inactive)
62 | N#Cc1c2ccc([N+](=O)[O-])cc2[n+]([O-])n1-c1ccccc1 | 51.8 (inactive)
63 | Cc1ccc2[nH]cc(/C=C/c3cc[n+](C)cc3)c2c1 | 38.4 (inactive)

Row | Compound | GFP fluorescence, lower = active (kMESF (background-subtracted))
64 | CC(C)Oc1ccc(C(=O)/C=C2/C(=O)Nc3ccccc32)cc1 | 29 (inactive)
65 | CCCOc1ccc(C(=O)NNC(=S)NC(=O)c2ccco2)cc1 | 51 (inactive)
66 | COc1ccc(NC(=O)/C(Cl)=C(/Cl)S(=O)Cc2ccccc2)cn1 (configuration not stated) | 35.8 (inactive)
67 | C=CCN1C(=O)/C(=C/c2cccs2)C(=O)NC1=S | 15.8 (inactive)
68 | Cc1ccc(/C=C2\SC(=S)N(Cc3ccccc3)C2=O)o1 | 39.4 (inactive)
69 | Oc1cc(-c2ccc(N3CCCCC3)nc2)cc2cccnc12 | 46.1 (inactive)
70 | CN(Cc1cnc2nc(N)nc(N)c2n1)c1ccc(C(=O)N[C@@H](CCC(=O)O)C(=O)O)cc1 | 39.3 (inactive) and 38.8 (inactive)
71 | O=C(CS(=O)c1ccccc1[N+](=O)[O-])Oc1ccc(Br)cc1 (configuration not stated) | 39.1 (inactive)
72 | O=[N+]([O-])c1cc(CN2CCN(c3ccccc3)CC2)c(O)c2ncccc12 | 45.6 (inactive)
73 | Cc1ccc(O)c(N=Nc2nccs2)c1 | 32.1 (inactive)
74 | CCOc1ccc(C(Nc2cccnc2)c2cc(Cl)c3cccnc3c2O)cc1 (configuration not stated) | 28.3 (inactive)
75 | COc1ccc2c(c1)c(/C=C/c1cc[n+](C)cc1)cn2C | 40 (inactive)
76 | COc1cccc(N=Nc2ccc(O)c3ncccc23)c1 | 50.7 (inactive)
77 | C=CCn1c(C)c(/C=C/c2cc[n+](C)cc2)c2ccccc21 | 52.8 (inactive)
78 | CCn1c(/C=C/c2ccc([N+](=O)[O-])o2)nc2ccccc2c1=O | -37.1 (inactive)
79 | CC1=C(C)/C(=N\OS(=O)(=O)c2ccc(C)cc2)C=CC1=O | 16.9 (inactive)
80 | O=C(OCn1ncc(Br)c(Br)c1=O)c1ccc(F)cc1 | 37.3 (inactive)
81 | N#Cc1cc([N+](=O)[O-])c(-n2nnc3ccccc32)c([N+](=O)[O-])c1 | 43.3 (inactive)
82 | O=C(CCc1ccccc1)NNC(=S)NC(=O)c1ccccc1 | 44.5 (inactive)
